Test [1] concerns the target T1, von Hippel-Lindau disease tumor suppressor/Wee1-like protein kinase (Homo sapiens) (UniProt P30291+P40337). As to the kind of experiment: PROTAC activity at VHL/Wee1 in human LNCaP cells assessed as induction of Wee1 degradation by measuring reduction in CDK1 phosphorylation at Tyr15 residue at 300 nM and above concentrations measured after 4 hrs by Western blot analysis. It counts as cell-based. (In general: In western blotting, separated proteins are transferred to a membrane and probed.)

The target in test [2] is T1, von Hippel-Lindau disease tumor suppressor/Wee1-like protein kinase (Homo sapiens). The experiment in a line: PROTAC activity at VHL/Wee1 in human PC-3 cells assessed as induction of Wee1 degradation at 100 nM and above concentrations measured after 4 hrs by Western blot analysis. It counts as cell-based.
Test [3] has the same target. As to the kind of experiment: PROTAC activity at VHL/Wee1 in human MCF7 cells assessed as induction of Wee1 degradation at 300 nM and above concentrations measured after 4 hrs by Western blot analysis. It counts as cell-based.
Test [4] shares this target. As to the kind of experiment: PROTAC activity at VHL/Wee1 in human HeLa S3 cells assessed as induction of Wee1 degradation by measuring reduction in phosphorylation of CDK1 at Tyr15 residue at 1 uM pretreated with AZD1775 for 2 hrs followed by incubation with compound for 5 hrs by Western blot analysis. The test is classed as cell-based.
Test [5] has the same target. As to the kind of experiment: PROTAC activity at VHL/Wee1 in human HeLa S3 cells assessed as induction of Wee1 degradation by measuring reduction in phosphorylation of CDK1 at Tyr15 residue at 30 to 10000 nM measured after 4 hrs by Western blot analysis. It counts as cell-based. The conditions noted are these: dose 30-10000 nM.
For test [6], the system named is MCF7. As to the kind of experiment: Antiproliferative activity against human MCF7 cells assessed as inhibition of cell growth measured after 72 hrs by MTS assay. It counts as functional, cell-based. The conditions noted are these: MCF7, 72 h. (Formazan colour is commonly taken as a measure of viable cells.)
Test [7] concerns the target T1, von Hippel-Lindau disease tumor suppressor/Wee1-like protein kinase (Homo sapiens). The experiment in a line: PROTAC activity at VHL/Wee1 in human BT-549 cells assessed as induction of Wee1 degradation at 100 nM and above concentrations measured after 4 hrs by Western blot analysis. The test is classed as cell-based.
The target is the same in test [8]. As to the kind of experiment: PROTAC activity at VHL/Wee1 in human HeLa S3 cells assessed as induction of Wee1 degradation by measuring reduction in phosphorylation of CDK1 at Tyr15 residue at higher concentration measured after 4 hrs by Western blot analysis. It counts as cell-based.
Test [9] shares this target. As to the kind of experiment: PROTAC activity at VHL/Wee1 in human HeLa S3 cells assessed as induction of Wee1 degradation at 1 uM pretreated with VH298 for 2 hrs followed by incubation with compound for 5 hrs by Western blot analysis. It counts as cell-based.
Test [10] shares this target. The experiment in a line: PROTAC activity at VHL/Wee1 in human HeLa S3 cells assessed as induction of Wee1 degradation by measuring reduction in phosphorylation of CDK1 at Tyr15 residue at 1 uM measured after 24 hrs by Western blot analysis relative to control. The test is classed as cell-based. Further details: scale not given: the % may be the effect or the level left.

Test [11] has the same target. As to the kind of experiment: PROTAC activity at VHL/Wee1 in human PC-3 cells assessed as induction of Wee1 degradation by measuring reduction in CDK1 phosphorylation at Tyr15 residue at 100 nM and above concentrations measured after 4 hrs by Western blot analysis. The test is classed as cell-based.
Test [12] has as its system BT-549. As to the kind of experiment: Antiproliferative activity against human BT-549 cells assessed as inhibition of cell growth measured after 72 hrs by MTS assay. It counts as functional, cell-based. The conditions noted are these: BT-549, 72 h.
Test [13] relates to LNCaP. As to the kind of experiment: Antiproliferative activity against human LNCaP cells assessed as inhibition of cell growth measured after 72 hrs by MTS assay. It counts as functional, cell-based.
The target of test [14] is T1, von Hippel-Lindau disease tumor suppressor/Wee1-like protein kinase (Homo sapiens). The experiment in a line: PROTAC activity at VHL/Wee1 in human BT-549 cells assessed as induction of Wee1 degradation by measuring reduction in CDK1 phosphorylation at Tyr15 residue at 300 nM and above concentrations measured after 4 hrs by Western blot analysis. The test is classed as cell-based. The conditions noted are these: MCF7.

Test [15] has the same target. The experiment in a line: PROTAC activity at VHL/Wee1 in human BT-549 cells assessed as induction of Wee1 degradation by measuring reduction in CDK1 phosphorylation at Tyr15 residue at 100 nM and above concentrations measured after 4 hrs by Western blot analysis. It counts as cell-based.
Test [16] shares this target. The experiment in a line: PROTAC activity at VHL/Wee1 in human HeLa S3 cells assessed as induction of Wee1 degradation at 30 to 3000 nM measured after 4 hrs by Western blot analysis. It counts as cell-based. To be noted: dose 30-3000 nM.
Test [17] shares this target. As to the kind of experiment: PROTAC activity at VHL/Wee1 in human HeLa S3 cells assessed as induction of Wee1 degradation at 1 uM measured after 4 hrs by Western blot analysis. The test is classed as cell-based.
Test [18] concerns PC-3. The experiment in a line: Antiproliferative activity against human PC-3 cells assessed as inhibition of cell growth measured after 72 hrs by MTS assay. The test is classed as functional, cell-based. To be noted: PC-3, 72 h.
Test [19] concerns the target T1, von Hippel-Lindau disease tumor suppressor/Wee1-like protein kinase (Homo sapiens). As to the kind of experiment: PROTAC activity at VHL/Wee1 in human HeLa S3 cells assessed as induction of Wee1 degradation at 1 uM measured after 24 to 48 hrs by Western blot analysis. To be noted: time 24-48 hrs. It counts as cell-based.
Test [20] has the same target. The experiment in a line: PROTAC activity at VHL/Wee1 in human HeLa S3 cells assessed as induction of Wee1 degradation at 1 uM measured after 24 hrs by Western blot analysis relative to control. It counts as cell-based.
The target is the same in test [21]. As to the kind of experiment: PROTAC activity at VHL/Wee1 in human LNCaP cells assessed as induction of Wee1 degradation at 300 nM and above concentrations measured after 4 hrs by Western blot analysis. The test is classed as cell-based.
Test [22] has as its target T2, Protein cereblon/Wee1-like protein kinase (Homo sapiens) (UniProt P30291+Q96SW2). As to the kind of experiment: PROTAC activity at CRBN/Wee1 in human LNCaP cells assessed as induction of Wee1 degradation at 300 nM and above concentrations measured after 4 hrs by Western blot analysis. The test is classed as cell-based.
For test [23], the target named is T2, Protein cereblon/Wee1-like protein kinase (Homo sapiens). The experiment in a line: PROTAC activity at CRBN/Wee1 in human MCF7 cells assessed as induction of Wee1 degradation at 300 nM and above concentrations measured after 4 hrs by Western blot analysis. The test is classed as cell-based.
For test [24] the target is unchanged. As to the kind of experiment: PROTAC activity at CRBN/Wee1 in human BT-549 cells assessed as induction of Wee1 degradation at 100 nM and above concentrations measured after 4 hrs by Western blot analysis. It counts as cell-based.
The target is the same in test [25]. As to the kind of experiment: PROTAC activity at CRBN/Wee1 in human HeLa S3 cells assessed as induction of Wee1 degradation at 1 uM pretreated with pomalidomide for 2 hrs followed by incubation with compound for 5 hrs by Western blot analysis. The test is classed as cell-based.
For test [26] the target is unchanged. As to the kind of experiment: PROTAC activity at CRBN/Wee1 in human PC-3 cells assessed as induction of Wee1 degradation at 100 nM and above concentrations measured after 4 hrs by Western blot analysis. The test is classed as cell-based.
For test [27] the target is unchanged. The experiment in a line: PROTAC activity at CRBN/Wee1 in human HeLa S3 cells assessed as induction of Wee1 degradation at 1 uM measured after 24 hrs by Western blot analysis relative to control. The test is classed as cell-based.
Test [28] has the same target. The experiment in a line: PROTAC activity at CRBN/Wee1 in human HeLa S3 cells assessed as induction of Wee1 degradation at 30 to 10000 nM measured after 4 hrs by Western blot analysis. It counts as cell-based. The conditions noted are these: dose 30-10000 nM.
For test [29] the target is unchanged. The experiment in a line: PROTAC activity at CRBN/Wee1 in human HeLa S3 cells assessed as induction of Wee1 degradation by measuring reduction in phosphorylation of CDK1 at Tyr15 residue at 1 uM pretreated with AZD1775 for 2 hrs followed by incubation with compound for 5 hrs by Western blot analysis. It counts as cell-based.
Test [30] has the same target. The experiment in a line: PROTAC activity at CRBN/Wee1 in human PC-3 cells assessed as induction of Wee1 degradation by measuring reduction in CDK1 phosphorylation at Tyr15 residue at 100 nM and above concentrations measured after 4 hrs by Western blot analysis. The test is classed as cell-based.
The target is the same in test [31]. As to the kind of experiment: PROTAC activity at CRBN/Wee1 in human HeLa S3 cells assessed as induction of Wee1 degradation by measuring reduction in phosphorylation of CDK1 at Tyr15 residue at 100 to 10000 nM measured after 4 hrs by Western blot analysis. It counts as cell-based. To be noted: dose 100-10000 nM.
The target is the same in test [32]. As to the kind of experiment: PROTAC activity at CRBN/Wee1 in human HeLa S3 cells assessed as induction of Wee1 degradation by measuring reduction in phosphorylation of CDK1 at Tyr15 residue at 1 uM measured after 24 hrs by Western blot analysis relative to control. The test is classed as cell-based. Also on record: scale not given: the % may be the effect or the level left.

For test [33] the target is unchanged. The experiment in a line: PROTAC activity at CRBN/Wee1 in human LNCaP cells assessed as induction of Wee1 degradation by measuring reduction in CDK1 phosphorylation at Tyr15 residue at 300 nM and above concentrations measured after 4 hrs by Western blot analysis. It counts as cell-based.
The target is the same in test [34]. The experiment in a line: PROTAC activity at CRBN/Wee1 in human BT-549 cells assessed as induction of Wee1 degradation by measuring reduction in CDK1 phosphorylation at Tyr15 residue at 100 nM and above concentrations measured after 4 hrs by Western blot analysis. It counts as cell-based.
Test [35] shares this target. As to the kind of experiment: PROTAC activity at CRBN/Wee1 in human HeLa S3 cells assessed as induction of Wee1 degradation at 1 uM measured after 4 hrs by Western blot analysis. It counts as cell-based.
For test [36] the target is unchanged. The experiment in a line: PROTAC activity at CRBN/Wee1 in human BT-549 cells assessed as induction of Wee1 degradation by measuring reduction in CDK1 phosphorylation at Tyr15 residue at 300 nM and above concentrations measured after 4 hrs by Western blot analysis. It counts as cell-based. The conditions noted are these: MCF7.

Activity calls are given as the source filed them. No cut-off for these calls is given here.

One may read the IC50 as the concentration at which inhibition is half-maximal.

`C=CCn1c(=O)c2cnc(Nc3ccc(N4CCN(CCCC(=O)N[C@H](C(=O)N5C[C@H](O)C[C@H]5C(=O)NCc5ccc(-c6scnc6C)cc5)C(C)(C)C)CC4)cc3)nc2n1-c1cccc(C(C)(C)O)n1`: the result in [1], in test [2], in [3], in test [4], in test [5] and in test [7] was Active. The outcome in test [8], in [9], in test [11], in test [14], in test [15] and in [16] was Active. Moreover, the result in test [17], in test [19] and in [21] was Active. The IC50 is 7 µM in [6], 2.4 µM in test [12], 5.2 µM in test [13] and over 20 µM in test [18]. The results for the Activity in test [10] and in [20] were 49% and 34%, respectively.
In the case of `C=CCn1c(=O)c2cnc(Nc3ccc(N4CCN(CCCC(=O)NCCOCCOCCNc5cccc6c5C(=O)N(C5CCC(=O)NC5=O)C6=O)CC4)cc3)nc2n1-c1cccc(C(C)(C)O)n1` (stereo not given), the result in test [22], in [23], in test [24], in test [25], in test [26] and in [28] was Active. Further, the outcome in test [29], in test [30], in [31], in test [33], in test [34] and in test [35] was Active. In addition, the outcome in test [36] was Active. Also, the IC50 in [6] was 14 µM; in test [12] it was 7.9 µM; in test [13], 16.6 µM; in [18], over 20 µM. Moreover, the Activity in test [27] came to 27%; in [32], 51%.

The values are drawn from ChEMBL document CHEMBL5143606, “Selective Wee1 degradation by PROTAC degraders recruiting VHL and CRBN E3 ubiquitin ligases” (Bioorg Med Chem Lett, 2022).
